This series in a line: plasma and brain concentrations in the locomotor activity study. It is filed as in vivo, mouse. To be noted: 30 mg/kg po; for concentration at 30 min / concentration at 60 min: male, C57BL/6, mouse, po, 30 mg/kg. On the procedure:
Regarding the PD model, reserpine is an alkaloid known to induce hypomobility/akinesia and rigidity, and reserpinized rodents are widely used as a preclinical model for PD.
The study was carried out in male C57BL/6 wild-type (22–25 g) mice that were acclimatized for 5 days. Animals were randomized based on body weight into six groups (G1 to G6), ten animals per group (n = 10), being group G1 the naïve control group. Animals were fed with standard diet ad libitum. Animals were dosed with subcutaneous administration of reserpine (2.5 mg/kg in DMSO/saline) and after 20 h they were treated with a vehicle (10 mL/kg, po), compound 26 (30 mg/kg, po), L-DOPA (100 or 400 mg/kg, ip) + carbidopa (100 mg/kg, ip) and/or their combination, as indicated in Figure 7. The vehicle employed for compound 26 administration was 5% NMP + 5% solutol HS-15 + 90% normal saline. L-DOPA and carbidopa were administered 30 min prior to start of locomotor activity recording. Compound 26 was administered and 15 min later, mice were placed in the locomotor activity cage to measure the locomotor activity for 60 min (total distance travelled) using ALL Maze version 0.5 automated software enabled with video tracking system. After the activity sessions, raw data were reduced using ALL Maze 5.0 software and Microsoft Excel. Statistical analysis was done with GraphPad Prism-5 using one way ANOVA followed by Dunnett’s test/Tukey’s post hoc test and/or two-way ANOVA followed by Bonferroni post hoc test. Data were considered statistically significant, if P value was less than 0.05. […]
Table S2.Plasma and brain concentrations achieved for compound 26in the locomotor
Plasma concentration (ng/mL) Brain concentration (ng/mL)
Animal 30 min 60 min Animal 30 min 60 min

Several values for one entry are separate records, joined by “and”; a condition that tells them apart may be missing. Identical values can stand only once. Like-named read-outs stand apart in the source and are kept apart here.

Consider `CS(=N)(=O)c1ccc(-c2ccccc2OCF)cc1` (stereo not shown) [Compound 26, 2-(Fluoromethoxy)-4′-(S-methanesulfonimidoyl)-1,1′-biphenyl], for which the “Brain concentration (ng/mL), individual animals 1-3” value by setting is: (30 min) 7185.33 ng/mL and 5537.43 ng/mL; (60 min) 5552.94 ng/mL and 2620.14 ng/mL and 4178.34 ng/mL. Besides, the “Plasma concentration (ng/mL), individual animals 1-3” value reads like this: (30 min) 9994.87 ng/mL and 7753.96 ng/mL; (60 min) 6716.72 ng/mL and 6187.65 ng/mL and 1662.96 ng/mL. Besides, the concentration at 30 min runs as follows: (brain, 30 min, read-out: Brain concentration (ng/mL), individual animals 1-3) 7340 ng/mL; (brain, 30 min, read-out: Brain concentration (ng/mL), mean) 6690 ng/mL; (plasma, 30 min, read-out: Plasma concentration (ng/mL), individual animals 1-3) 9690 ng/mL; (plasma, 30 min, read-out: Plasma concentration (ng/mL), mean) 9150 ng/mL. For the same compound, the concentration at 60 min was found to be 4120 ng/mL (brain, 60 min, read-out: Brain concentration (ng/mL), mean) and 4860 ng/mL (plasma, 60 min, read-out: Plasma concentration (ng/mL), mean).

For the origin of these results see publication PMC9511493, “2-(Fluoromethoxy)-4′-(S-methanesulfonimidoyl)-1,1′-biphenyl (UCM-1306), an Orally Bioavailable Positive Allosteric Modulator of the Human Dopamine D1 Receptor for Parkinson’s Disease” (Journal of Medicinal Chemistry, 2022).
